According to patent publication US20250270213A1, “PI3Ka INHIBITORS” (Synnovation Therapeutics, Inc., priority 2022, published 2025):

Test system: T47D (PIK3CA H1047R) cells
Test: pS473 AKT assay with 2.5% FBS, T47D cells
Format: cell-based
Settings: Homo sapiens, pSer473 AKT, DMEM with 2.5% FBS, 2 h treatment, read-out: T47D_IC50
Experimental: Example B. pS473 AKT Assay Protocol with 2.5% FBS
T47D (PIK3CA H1047R) cells were cultured using 10-cm petri dishes with recommended medium plus 10% fetal bovine serum. One day before the assay, cells were seeded in 96-well plates. After overnight incubation, the medium was changed to DMEM with 2.5% fetal bovine serum (FBS) and the cells were treated with different concentrations of the compounds for 2 h. Cells were then fixed using 4% paraformaldehyde at room temperature for 20 min. Aspirate 4% paraformaldehyde, and wash cells using 1× regular phosphate buffered saline 3 times, 5 min each. Aspirate any residual phosphate buffered saline and block cells using 10% goat serum containing 1% bovine serum albumin and 0.3% Triton X-100 at room temperature for 1 h. Without any additional washing, primary antibodies (rabbit anti-pSer473 AKT) were diluted using blocking buffer and added at a final volume of 50 microliter per well. Keep assay plates with primary antibodies overnight at 4° C. Wash cells using 1× regular phosphate buffered saline 3 times, 5 min each. After the final wash, incubate cells with horseradish peroxidase-conjugated secondary antibodies (goat Anti-rabbit IgG) diluted using the same blocking buffer at room temperature for 1 h. Wash cells thoroughly using 1× regular phosphate buffered saline 3 times, 5 min each. Aspirate any residual phosphate buffered saline. Add Super-Signal ELISA Pico Chemiluminescent Substrate at a final volume of 100 microliter per well. Read plates on i3x Multi-Mode Microplate Reader and calculate IC50 values using GraphPad Prism software.

IC50, < 1000 nM:
CCc1nn2c3c4c(cc(C)cc4c(=O)n(C)c13)C(Nc1ccc(C)nc1-c1ccncc1)C2 (stereo not shown) [Compound 40, 2-Ethyl-3,6-dimethyl-8-((6-methyl-[2,4′-bipyridin]-3-yl)amino)-8,9-dihydrobenzo[de]pyrazolo[4,5,1-ij][1,7]naphthyridin-4(3H)-one]
CCn1ncc2c3c(C(C)Nc4ccc(Cl)nc4-c4ccc(=O)n(C)c4)cc(C)cc3c(=O)n(C)c21 (stereo not shown) [Compound 41, 9-(1-((6-chloro-1′-methyl-6′-oxo-1′,6′-dihydro-[2,3′-bipyridin]-3-yl)amino)ethyl)-3-ethyl-4,7-dimethyl-3,4-dihydro-5H-pyrazolo[3,4-c]isoquinolin-5-one]
CCn1ncc2c3c(C(C)Nc4ccc(Cl)nc4-c4ccc(C(=O)NC)c(F)c4)cc(C)cc3c(=O)n(C)c21 (stereo not shown) [Compound 42, 4-(6-chloro-3-((1-(3-ethyl-4,7-dimethyl-5-oxo-4,5-dihydro-3H-pyrazolo[3,4-c]isoquinolin-9-yl)ethyl)amino)pyridin-2-yl)-2-fluoro-N-methylbenzamide]
CCn1ncc2c3c(C(C)Nc4ccc(Cl)nc4-c4ccncn4)cc(C)cc3c(=O)n(C)c21 (stereo not shown) [Compound 43, 9-(1-((6-chloro-2-(pyrimidin-4-yl)pyridin-3-yl)amino)ethyl)-3-ethyl-4,7-dimethyl-3,4-dihydro-5H-pyrazolo[3,4-c]isoquinolin-5-one]
CCn1ncc2c3c(C(C)Nc4ccc(Cl)nc4-c4cncnc4)cc(C)cc3c(=O)n(C)c21 (stereo not shown) [Compound 44, 9-(1-((6-chloro-2-(pyrimidin-5-yl)pyridin-3-yl)amino)ethyl)-3-ethyl-4,7-dimethyl-3,4-dihydro-5H-pyrazolo[3,4-c]isoquinolin-5-one]
CCn1ncc2c3c(C(C)Nc4ccc(Cl)nc4-c4ccncc4F)cc(C)cc3c(=O)n(C)c21 (stereo not shown) [Compound 45, 9-(1-((6-chloro-3′-fluoro-[2,4′-bipyridin]-3-yl)amino)ethyl)-3-ethyl-4,7-dimethyl-3,4-dihydro-5H-pyrazolo[3,4-c]isoquinolin-5-one]
CCn1ncc2c3c(C(C)Nc4ccc(Cl)nc4-c4ccc(C(=O)N(C)C)cc4)cc(C)cc3c(=O)n(C)c21 (stereo not shown) [Compound 46, 4-(6-chloro-3-((1-(3-ethyl-4,7-dimethyl-5-oxo-4,5-dihydro-3H-pyrazolo[3,4-c]isoquinolin-9-yl)ethyl)amino)pyridin-2-yl)-N,N-dimethylbenzamide]
CCn1ncc2c3c(C(C)Nc4ccc(Cl)nc4-c4ccc(C(=O)O)cc4)cc(C)cc3c(=O)n(C)c21 (stereo not shown) [Compound 47, 4-(6-chloro-3-((1-(3-ethyl-4,7-dimethyl-5-oxo-4,5-dihydro-3H-pyrazolo[3,4-c]isoquinolin-9-yl)ethyl)amino)pyridin-2-yl) benzoic acid]
CCn1ncc2c3c(C(C)Nc4ccc(Cl)nc4-c4ccnn4C)cc(C)cc3c(=O)n(C)c21 (stereo not shown) [Compound 48, 9-(1-((6-chloro-2-(1-methyl-1H-pyrazol-5-yl)pyridin-3-yl)amino)ethyl)-3-ethyl-4,7-dimethyl-3,4-dihydro-5H-pyrazolo[3,4-c]isoquinolin-5-one]
CCn1ncc2c3c(C(C)Nc4ccc(Cl)nc4-c4cnn(C)c4C)cc(C)cc3c(=O)n(C)c21 (stereo not shown) [Compound 49, 9-(1-((6-chloro-2-(1,5-dimethyl-1H-pyrazol-4-yl)pyridin-3-yl)amino)ethyl)-3-ethyl-4,7-dimethyl-3,4-dihydro-5H-pyrazolo[3,4-c]isoquinolin-5-one]
CCn1ncc2c3c(C(C)Nc4ccc(Cl)nc4-c4cnn(C)c4)cc(C)cc3c(=O)n(C)c21 (stereo not shown) [Compound 50, 9-(1-((6-chloro-2-(1-methyl-1H-pyrazol-4-yl)pyridin-3-yl)amino)ethyl)-3-ethyl-4,7-dimethyl-3,4-dihydro-5H-pyrazolo[3,4-c]isoquinolin-5-one]
CCn1ncc2c3c(C(C)Nc4ccc(Cl)nc4-c4cn[nH]c4)cc(C)cc3c(=O)n(C)c21 (stereo not shown) [Compound 51, 9-(1-((6-chloro-2-(1H-pyrazol-4-yl)pyridin-3-yl)amino)ethyl)-3-ethyl-4,7-dimethyl-3,4-dihydro-5H-pyrazolo[3,4-c]isoquinolin-5-one]
CCn1ncc2c3c(C(C)Nc4ccc(C)nc4-c4cnn(C)c4)cc(C)cc3c(=O)n(C)c21 (stereo not shown) [Compound 52, 3-Ethyl-4,7-dimethyl-9-(1-((6-methyl-2-(1-methyl-1H-pyrazol-4-yl)pyridin-3-yl)amino)ethyl)-3,4-dihydro-5H-pyrazolo[3,4-c]isoquinolin-5-one]
CCn1ncc2c3c(C(C)Nc4ccc(C)nc4-c4cn[nH]c4)cc(C)cc3c(=O)n(C)c21 (stereo not shown) [Compound 53, 3-ethyl-4,7-dimethyl-9-(1-((6-methyl-2-(1H-pyrazol-4-yl)pyridin-3-yl)amino)ethyl)-3,4-dihydro-5H-pyrazolo[3,4-c]isoquinolin-5-one]
CCn1ncc2c3c(C(C)Nc4ccc(C)nc4-c4ccnn4C)cc(C)cc3c(=O)n(C)c21 (stereo not shown) [Compound 54, 3-ethyl-4,7-dimethyl-9-(1-((6-methyl-2-(1-methyl-1H-pyrazol-5-yl)pyridin-3-yl)amino)ethyl)-3,4-dihydro-5H-pyrazolo[3,4-c]isoquinolin-5-one]
CCn1ncc2c3c(C(C)Nc4ccc(C)nc4-c4ccc(C(=O)NC)c(F)c4)cc(C)cc3c(=O)n(C)c21 (stereo not shown) [Compound 55, 4-(3-((1-(3-ethyl-4,7-dimethyl-5-oxo-4,5-dihydro-3H-pyrazolo[3,4-c]isoquinolin-9-yl)ethyl)amino)-6-methylpyridin-2-yl)-2-fluoro-N-methylbenzamide]
CCn1ncc2c3c(C(C)Nc4ccccc4-c4cnn(CCO)c4)cc(C)cc3c(=O)n(C)c21 (stereo not shown) [Compound 56, 3-ethyl-9-(1-((2-(1-(2-hydroxyethyl)-1H-pyrazol-4-yl)phenyl)amino)ethyl)-4,7-dimethyl-3,4-dihydro-5H-pyrazolo[3,4-c]isoquinolin-5-one]
CCn1ncc2c3c(C(C)Nc4ccccc4N4CCN(C(C)=O)CC4)cc(C)cc3c(=O)n(C)c21 (stereo not shown) [Compound 57, 9-(1-((2-(4-Acetylpiperazin-1-yl)phenyl)amino)ethyl)-3-ethyl-4,7-dimethyl-3,4-dihydro-5H-pyrazolo[3,4-c]isoquinolin-5-one]
CCn1ncc2c3c(C(C)Nc4ccccc4N4CCn5cnnc5C4)cc(C)cc3c(=O)n(C)c21 (stereo not shown) [Compound 58, 9-(1-((2-(5,6-Dihydro-[1,2,4]triazolo[4,3-a]pyrazin-7(8H)-yl)phenyl)amino)ethyl)-3-ethyl-4,7-dimethyl-3,4-dihydro-5H-pyrazolo[3,4-c]isoquinolin-5-one]
CCn1ncc2c3c(C(C)Nc4ccc(Cl)nc4-c4noc(=O)[nH]4)cc(C)cc3c(=O)n(C)c21 (stereo not shown) [Compound 59, 3-(6-Chloro-3-((1-(3-ethyl-4,7-dimethyl-5-oxo-4,5-dihydro-3H-pyrazolo[3,4-c]isoquinolin-9-yl)ethyl)amino)pyridin-2-yl)-1,2,4-oxadiazol-5(4H)-one]
CCn1ncc2c3c(C(C)Nc4ccc(Cl)nc4-c4noc(=O)[nH]4)cc(C)cc3c(=O)n(CC(F)F)c21 (stereo not shown) [Compound 60, 3-(6-Chloro-3-((1-(4-(2,2-difluoroethyl)-3-ethyl-7-methyl-5-oxo-4,5-dihydro-3H-pyrazolo[3,4-c]isoquinolin-9-yl)ethyl)amino)pyridin-2-yl)-1,2,4-oxadiazol-5(4H)-one]
Cc1cc(C(C)Nc2ccc(Cl)nc2-c2noc(=O)[nH]2)c2c(c1)c(=O)n(C)c1c2cnn1C1CCCC1 (stereo not shown) [Compound 61, 3-(6-Chloro-3-((1-(3-cyclopentyl-4,7-dimethyl-5-oxo-4,5-dihydro-3H-pyrazolo[3,4-c]isoquinolin-9-yl)ethyl)amino)pyridin-2-yl)-1,2,4-oxadiazol-5(4H)-one]
Cc1cc(C(C)Nc2ccc(Cl)nc2-c2noc(=O)[nH]2)c2c(c1)c(=O)n(C)c1c2cnn1C(C)C (stereo not shown) [Compound 62, 3-(6-Chloro-3-((1-(3-isopropyl-4,7-dimethyl-5-oxo-4,5-dihydro-3H-pyrazolo[3,4-c]isoquinolin-9-yl)ethyl)amino)pyridin-2-yl)-1,2,4-oxadiazol-5(4H)-one]
CCn1ncc2c3c(C(C)Nc4ccc(Cl)nc4-c4noc(=O)[nH]4)cc(Cl)cc3c(=O)n(C)c21 (stereo not shown) [Compound 63, 3-(6-Chloro-3-((1-(7-chloro-3-ethyl-4-methyl-5-oxo-4,5-dihydro-3H-pyrazolo[3,4-c]isoquinolin-9-yl)ethyl)amino)pyridin-2-yl)-1,2,4-oxadiazol-5(4H)-one]
CC(Nc1ccc(Cl)nc1-c1noc(=O)[nH]1)c1cc(Cl)cc2c(=O)n(C)c3c(cnn3CC3CC3)c12 (stereo not shown) [Compound 64, 3-(6-Chloro-3-((1-(7-chloro-3-(cyclopropylmethyl)-4-methyl-5-oxo-4,5-dihydro-3H-pyrazolo[3,4-c]isoquinolin-9-yl)ethyl)amino)pyridin-2-yl)-1,2,4-oxadiazol-5(4H)-one]
